Patent US7662936B2, “Mass spectrometry of antibody conjugates” (priority 2004, dated 2010)
Where a SMILES comes first, the peptide text is derived from it. [ ]: non-standard residue; d: D form. The star is where a group is joined. Dolaproine = CO[C@@H]([C@@H]1CCCN1)[C@@H](C)C(=O)O; Dil = CC[C@H](C)[C@H](NC)[C@@H](CC(=O)O)OC; X1 = C[C@@H](N*)[C@@H](O)c1ccccc1; NMeV = CN[C@H](C(=O)O)C(C)C

Columns and labels:
[1] = Rat study of trastuzumab-MC-val-cit-PAB-MMAE (Example 8): clinical observations, mortality, body weight; assay type: in vivo, Sprague-Dawley rats
Protocol: Groups 2 and 3 were administered a preparation of Tr-MC-val-cit-PAB-MMAE with average drug loading of 8.7 MMAE/Tr. Groups 4, 5, and 6 were administered a preparation of Tr-MC-val-cit-PAB-MMAE with average drug loading of 5.3 MMAE/Tr. […] Group 6 received the highest dose of 4209 μg MMAE/m^2.
The dose solutions were administered by a single intravenous bolus tail-vein injection on Study Day 1 at a dose volume of 10 ml/kg. […] Body weights of the animals were measured pre-dose on Study Day 1 and daily thereafter. Whole blood was collected into EDTA containing tubes for hematology parameters and complete blood counts. Whole blood was collected into serum separator tubes for clinical chemistry parameters. Blood samples were collected pre-dose on […], and on Study Days 3 and 5. Whole blood was also collected into lithium heparin containing tubes and the plasma was frozen at −70° C. for later analysis.

[2] = more cytotoxic; cited from earlier work
[3] = cited from earlier work

Compound	appearance of animals throughout the 5 days on study ([1]; Group 7, free MMAE 0.206 mg/kg, single iv bolus, 6 female rats)	changes in body weight ([1]; groups 2, 4 and 7, comparable amounts of MMAE (840 ug/m^2))	cytotoxicity relative to conventional cancer chemotherapeutic agents like methotrexate, daunorubicin, and vincristine [2]	adverse effects leading to discontinuation of clinical trials [3]
CC[C@H](C)[C@@H]([C@@H](CC(=O)N1CCC[C@H]1[C@H](OC)[C@@H](C)C(=O)N[C@H](C)[C@@H](O)c1ccccc1)OC)N(C)C(=O)[C@@H](NC(=O)[C@@H](NC)C(C)C)C(C)C [MMAE] (H-[NMeV]V[Dil][Dolaproine]-X1)	appeared healthy	comparable changes in body weight	–	–
COc1cc2cc(c1Cl)N(C)C(=O)C[C@H](OC(=O)[C@H](C)N(C)C(C)=O)[C@]1(C)O[C@H]1[C@H](C)[C@@H]1C[C@@](O)(NC(=O)O1)[C@H](OC)/C=C/C=C(\C)C2 [Maytansine]	–	–	100-to 1000 fold	serious adverse effects on the central nervous system and gastrointestinal system
